Earlier results on one compound are cited in patent US20240189233A1, “POWDERY PREPARATION AND METHOD FOR MANUFACTURING SAME” (ICHIMARU PHARCOS CO., LTD., priority 2021, published 2024).

The test system of this data set is human breast cancer cells. The conditions noted are these: Cheng W L et al. (2011).

Regarding `C=C[C@H](O)C#CC#C[C@H](O)/C=C\CC/C=C\C` [araliadiol], the growth inhibitory activity result is “growth inhibitory activity”.
